Broadly, the IC50 is the midpoint of a concentration-inhibition curve.

Here are results for 29 molecules from US10722514B2 (FLX Bio, Inc., priority 2017, dated 2020).

This assay has as its target T1, recombinant full-length USP7 (Homo sapiens, UniProt Q93009).
T1 construct: A 25 μl reaction volume containing recombinant full-length USP7 (62 pM)
The experiment in a line: USP7-mediated ubiquitin-rhodamine cleavage assay. Format: biochemical. Conditions: recombinant full-length USP7 62 pM; ubiquitin-rhodamine 100 nM; 30-minute incubation with compound, 1 hour reaction at room temperature; read-out: Potency: USP7 IC50. In outline:
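Compounds are first incubated with 62 pM enzyme for 30 min at room temperature in pH 7.3 HEPES buffer containing TCEP and BSA. Cleavage of 100 nM ubiquitin-rhodamine proceeds for 1 h before an acid quench, and IC50 is derived from fluorescence.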

T1 sequence (Q93009 whole entry): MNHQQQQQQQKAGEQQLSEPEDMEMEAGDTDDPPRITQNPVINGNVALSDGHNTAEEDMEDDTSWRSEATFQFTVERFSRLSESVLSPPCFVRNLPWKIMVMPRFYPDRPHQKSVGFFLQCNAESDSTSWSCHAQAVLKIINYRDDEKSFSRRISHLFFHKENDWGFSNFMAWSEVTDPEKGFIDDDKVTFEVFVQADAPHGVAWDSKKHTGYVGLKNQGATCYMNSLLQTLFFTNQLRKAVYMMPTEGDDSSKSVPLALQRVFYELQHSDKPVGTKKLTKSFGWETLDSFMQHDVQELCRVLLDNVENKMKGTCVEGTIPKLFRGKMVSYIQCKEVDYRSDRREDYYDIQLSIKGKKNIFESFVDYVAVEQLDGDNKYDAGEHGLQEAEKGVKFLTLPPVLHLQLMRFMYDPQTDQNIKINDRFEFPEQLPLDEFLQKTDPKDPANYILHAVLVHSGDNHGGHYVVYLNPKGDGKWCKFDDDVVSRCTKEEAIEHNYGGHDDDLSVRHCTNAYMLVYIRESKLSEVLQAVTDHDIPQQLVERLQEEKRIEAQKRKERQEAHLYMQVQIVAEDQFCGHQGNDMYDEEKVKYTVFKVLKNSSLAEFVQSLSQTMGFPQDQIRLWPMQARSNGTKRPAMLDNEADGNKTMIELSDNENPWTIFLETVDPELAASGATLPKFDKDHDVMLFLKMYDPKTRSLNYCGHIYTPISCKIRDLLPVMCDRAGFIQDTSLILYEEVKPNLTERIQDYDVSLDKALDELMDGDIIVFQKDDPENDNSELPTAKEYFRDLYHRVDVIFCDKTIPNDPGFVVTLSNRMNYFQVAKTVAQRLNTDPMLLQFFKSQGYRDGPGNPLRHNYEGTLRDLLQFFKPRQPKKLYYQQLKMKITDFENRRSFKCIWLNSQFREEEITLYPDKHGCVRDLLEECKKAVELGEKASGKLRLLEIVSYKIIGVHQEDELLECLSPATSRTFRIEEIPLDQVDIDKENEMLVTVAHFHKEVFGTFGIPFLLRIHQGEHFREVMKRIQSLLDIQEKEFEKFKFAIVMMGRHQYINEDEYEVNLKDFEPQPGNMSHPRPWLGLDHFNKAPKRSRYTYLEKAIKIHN

`Cc1cc(Cl)cc(-c2ccnc3cc(CN4C(=O)CCC4=O)sc23)c1O[C@H]1CCNC[C@@H]1F` [Example 208, 1-((7-(5-Chloro-2-(((3S,4S)-3-fluoropiperidin-4-yl)oxy)-3-methylphenyl)thieno[3,2-b]pyridin-2-yl)methyl)pyrrolidine-2,5-dione]: the concentration for half-maximal inhibition (IC50) was less than 1 µM.
Regarding `Cc1cc(Cl)cc(-c2ccnc3cc(CN4C(=O)CCC4=O)sc23)c1O[C@@H]1CCNC[C@@H]1F` [Example 209, 1-((7-(5-Chloro-2-(((3S,4R)-3-fluoropiperidin-4-yl)oxy)-3-methylphenyl)thieno[3,2-b]pyridin-2-yl)methyl)pyrrolidine-2,5-dione], the IC50 is less than 1 µM.
On to `Cc1cc(Cl)cc(-c2ccnc3cc(CN4C(=O)CCC4=O)sc23)c1OC1CCNCC1` [Example 210, 1-((7-(5-Chloro-3-methyl-2-(piperidin-4-yloxy)phenyl)thieno[3,2-b]pyridin-2-yl)methyl)pyrrolidine-2,5-dione], for which the IC50 was less than 1 µM.
Consider `Cc1cc(Cl)cc(-c2ccnc3cc(CN4C(=O)CCC4=O)sc23)c1O[C@H]1CCCNC1` [Example 211, (S)-1-((7-(5-Chloro-3-methyl-2-(piperidin-3-yloxy)phenyl)thieno[3,2-b]pyridin-2-yl)methyl)pyrrolidine-2,5-dione], for which the IC50 is less than 1 µM.
Regarding `Cc1cc(C#N)cc(-c2ccnc3cc(CN4C(=O)CCC4=O)sc23)c1OC1CCNCC1` [Example 212, 3-(2-((2,5-Dioxopyrrolidin-1-yl)methyl)thieno[3,2-b]pyridin-7-yl)-5-methyl-4-(piperidin-4-yloxy)benzonitrile], the IC50 is less than 1 µM.
With `CN[C@H]1CC[C@H](Oc2c(C)cc(Cl)cc2-c2ccnc3cc(CN4C(=O)CCC4=O)sc23)CC1` [Example 213, 1-((7-(5-Chloro-3-methyl-2-(((1r,4r)-4-(methylamino)cyclohexyl)oxy)phenyl)thieno[3,2-b]pyridin-2-yl)methyl)pyrrolidine-2,5-dione], the IC50 was less than 1 µM.
For the molecule `Cc1cc(Cl)cc(-c2ccnc3cc(CN4C(=O)CCC4=O)sc23)c1O[C@H]1C[C@H]2CC[C@@H](C1)N2` [Example 214, 1-((7-(2-(((1R,3r,5S)-8-Azabicyclo[3.2.1]octan-3-yl)oxy)-5-chloro-3-methylphenyl)thieno[3,2-b]pyridin-2-yl)methyl)pyrrolidine-2,5-dione], the IC50 is less than 1 µM.
Turning to `Cc1cc(Cl)cc(-c2ccnc3cc(CN4C(=O)CCC4=O)sc23)c1O[C@@H]1C[C@H]2CC[C@@H](C1)N2` [Example 215, 1-((7-(2-(((1R,3s,5S)-8-Azabicyclo[3.2.1]octan-3-yl)oxy)-5-chloro-3-methylphenyl)thieno[3,2-b]pyridin-2-yl)methyl)pyrrolidine-2,5-dione], the concentration for half-maximal inhibition (IC50) was less than 1 µM.
Turning to `Cc1cc(Cl)cc(-c2ccnc3cc(CN4C(=O)CCC4=O)sc23)c1OC1CCN(C)CC1` [Example 216, 1-((7-(5-Chloro-3-methyl-2-((I-methylpiperidin-4-yl)oxy)phenyl)thieno[3,2-b]pyridin-2-yl)methyl)pyrrolidine-2,5-dione], the IC50 was less than 1 µM.
For the molecule `Cc1cc(Cl)cc(-c2ccnc3cc(CN4C(=O)C5CCCCC5C4=O)sc23)c1OC1CCNCC1` (centres unmarked) [Example 217], the IC50 was in the range of 1 to 10 µM.
On to `Cc1cc(Cl)cc(-c2ccnc3cc(CN4C(=O)C5CCCN5C4=O)sc23)c1OC1CCNCC1` (centres unmarked) [Example 218, 2-((7-(5-Chloro-3-methyl-2-(piperidin-4-yloxy)phenyl)thieno[3,2-b]pyridin-2-yl)methyl)tetrahydro-1H-pyrrolo[1,2-c]imidazole-1,3(2H)-dione], for which the IC50 was in the range of 1 to 10 µM.
With `Cc1cc(Cl)cc(-c2ccnc3cc(CCN4C(=O)CCS4(=O)=O)sc23)c1OC1CCNCC1` [Example 219, 2-(2-(7-(5-chloro-3-methyl-2-(piperidin-4-yloxy)phenyl)thieno[3,2-b]pyridin-2-yl)ethyl)isothiazolidin-3-one 1,1-dioxide] the figure was 10 to 30 µM.
With `Cc1cc(Cl)cc(-c2ccnc3cc(CN4C(=O)CCC4=O)sc23)c1O[C@H]1C[C@H]2CN[C@@H]1C2` [Example 220, 1-((7-(2-(((1R,4S,6S)-2-azabicyclo[2.2.1]heptan-6-yl)oxy)-5-chloro-3-methylphenyl)thieno[3,2-b]pyridin-2-yl)methyl)pyrrolidine-2,5-dione] the figure was less than 1 µM.
Regarding `Cc1cc(Cl)cc(-c2ccnc3cc(CN4C(=O)CCC4=O)sc23)c1O[C@H]1C[C@@H]2CN[C@H]1C2` [Example 221, 1-((7-(2-(((1S,4R,6S)-2-azabicyclo[2.2.1]heptan-6-yl)oxy)-5-chloro-3-methylphenyl)thieno[3,2-b]pyridin-2-yl)methyl)pyrrolidine-2,5-dione], the IC50 is less than 1 µM.
With `Cc1cc(Cl)cc(-c2ccnc3cc(CN4C(=O)CCNC4=O)sc23)c1OC1CCNCC1` [Example 222, 3-((7-(5-Chloro-3-methyl-2-(piperidin-4-yloxy)phenyl)thieno[3,2-b]pyridin-2-yl)methyl)dihydropyrimidine-2,4(1H,3H)-dione] the figure was less than 1 µM; with `Cc1cc(Cl)cc(-c2ccnc3cc(CN4C(=O)CCC4=O)sc23)c1O[C@H]1CCNC[C@@H]1C` [Example 223, 1-((7-(5-Chloro-3-methyl-2-(((3S,4S)-3-methylpiperidin-4-yl)oxy)phenyl)thieno[3,2-b]pyridin-2-yl)methyl)pyrrolidine-2,5-dione], less than 1 µM.
Take `Cc1cc(Cl)cc(-c2ccnc3cc(CN4C(=O)CN(C)C4=O)sc23)c1OC1CCNCC1` [Example 224, 3-((7-(5-Chloro-3-methyl-2-(piperidin-4-yloxy)phenyl)thieno[3,2-b]pyridin-2-yl)methyl)-1-methylimidazolidine-2,4-dione]: the IC50 lay within 1 to 10 µM.
Take `Cc1cc(Cl)cc(-c2ncnc3cc(CN4C(=O)COC4=O)sc23)c1OC1CCNCC1` [Example 225, 3-((4-(5-Chloro-3-methyl-2-(piperidin-4-yloxy)phenyl)thieno[3,2-d]pyrimidin-6-yl)methyl)oxazolidine-2,4-dione]: the IC50 lay within 1 to 10 µM.
On to `Cc1cc(Cl)cc(-c2ncnc3cc(CN4C(=O)CSC4=O)sc23)c1OC1CCNCC1` [Example 226, 3-((4-(5-Chloro-3-methyl-2-(piperidin-4-yloxy)phenyl)thieno[3,2-d]pyrimidin-6-yl)methyl)thiazolidine-2,4-dione], for which the IC50 lay within 1 to 10 µM.
Turning to `Cc1cc(Cl)cc(-c2ccnc3cc(Cn4c(C(F)(F)F)cccc4=O)sc23)c1OC1CCNCC1` [Example 227, 1-((7-(5-Chloro-3-methyl-2-(piperidin-4-yloxy)phenyl)thieno[3,2-b]pyridin-2-yl)methyl)-6-(trifluoromethyl)pyridin-2(1H)-one], the half-maximal inhibitory concentration (IC50) lay within 10 to 30 µM.
With `Cc1cc(Cl)cc(-c2ccnc3cc(CN4C(=O)C5CCCCN5C4=O)sc23)c1OC1CCNCC1` (centres unmarked) [Example 228, 2-((7-(5-Chloro-3-methyl-2-(piperidin-4-yloxy)phenyl)thieno[3,2-b]pyridin-2-yl)methyl)tetrahydroimidazo[1,5-a]pyridine-1,3(2H,5H)-dione] the figure was less than 1 µM; with `Cc1cc(Cl)cc(-c2ccnc3cc(CN4C(=O)CCC4=O)sc23)c1O[C@H]1CCNC[C@H]1C` [Example 229, 1-((7-(5-Chloro-3-methyl-2-(((3R,4S)-3-methylpiperidin-4-yl)oxy)phenyl)thieno[3,2-b]pyridin-2-yl)methyl)pyrrolidine-2,5-dione], less than 1 µM; with `Cc1cc(Cl)cc(-c2ncnc3cc(CN4C(=O)CCC4=O)sc23)c1O[C@H]1CCCNC1` [Example 230, (S)-1-((4-(5-Chloro-3-methyl-2-(piperidin-3-yloxy)phenyl)thieno[3,2-d]pyrimidin-6-yl)methyl)pyrrolidine-2,5-dione], less than 1 µM.
`Cc1cc(Cl)cc(-c2ncnc3cc(CN4C(=O)C5CC5C4=O)sc23)c1OC1CCNCC1` (centres unmarked) [Example 231, 3-((4-(5-Chloro-3-methyl-2-(piperidin-4-yloxy)phenyl)thieno[3,2-d]pyrimidin-6-yl)methyl)-3-azabicyclo[3.1.0]hexane-2,4-dione]: the IC50 is 1 to 10 µM.
With `Cc1cc(Cl)cc(-c2ncnc3cc(Cn4c(=O)ccn(C)c4=O)sc23)c1OC1CCNCC1` [Example 232, 3-((4-(5-Chloro-3-methyl-2-(piperidin-4-yloxy)phenyl)thieno[3,2-d]pyrimidin-6-yl)methyl)-1-methylpyrimidine-2,4(1H,3H)-dione] the figure was less than 1 µM; with `Cc1cc(Cl)cc(-c2ccnc3cc(CN4C(=O)C5CC5C4=O)sc23)c1OC1CCNCC1` (centres unmarked) [Example 233, 3-((7-(5-Chloro-3-methyl-2-(piperidin-4-yloxy)phenyl)thieno[3,2-b]pyridin-2-yl)methyl)-3-azabicyclo[3.1.0]hexane-2,4-dione], less than 1 µM.
With `Cc1cc(Cl)cc(-c2ccnc3cc(CN4C(=O)CCC4=O)sc23)c1OC1CCNCC1CO` (centres unmarked) [Example 234, 1-((7-(5-Chloro-2-((3-(hydroxymethyl)piperidin-4-yl)oxy)-3-methylphenyl)thieno[3,2-b]pyridin-2-yl)methyl)pyrrolidine-2,5-dione] the figure was less than 1 µM.
On to `Cc1cc(Cl)cc(-c2ccnc3cc(CN4C(=O)CCCC4=O)sc23)c1OC1CCNCC1` [Example 235, 1-((7-(5-Chloro-3-methyl-2-(piperidin-4-yloxy)phenyl)thieno[3,2-b]pyridin-2-yl)methyl)piperidine-2,6-dione], for which the IC50 was less than 1 µM.
For the molecule `Cc1cc(Cl)cc(-c2ccnc3cc(CN4C(=O)CC5(CCCC5)CC4=O)sc23)c1OC1CCNCC1` [Example 236, 8-((7-(5-Chloro-3-methyl-2-(piperidin-4-yloxy)phenyl)thieno[3,2-b]pyridin-2-yl)methyl)-8-azaspiro[4.5]decane-7,9-dione], the IC50 was less than 1 µM.
